We go through 1 compound from patent publication US5958947A, “DNA-affinic hypoxia selective cytotoxins” (priority 1996, dated 1999).

Data set [1] in a line: Acute aerobic and hypoxic cytotoxicity (colony formation). It counts as cell-based, Chinese hamster. As to conditions: chinese hamster, aerobic v79 cells, V79 cells, aerobic, 1 hour, 37° C.; 50% inhibition of clonogenicity. How it is done:
(§1) Samples of V79 Chinese hamster lung cells used in the following experiments were prepared as follows. V79 cells, exponentially growing as monolayer cultures in RPMI 1640 medium (Mediatech) supplemented with 10% fetal calf serum, were trypsinized, centrifuged for 5 min, harvested, then suspended in 25 ml Erlenmeyer flasks fitted with rubber caps at 5×10^5 cells/ml (5 ml). Individual flasks either were shaken (100 rpm) at 37° C. under aerobic conditions or made hypoxic by gassing with a 95% N2 (nitrogen)/5% CO2 (carbon dioxide) humidified gas mixture for 1 hour.
(§2) To determine the fraction of surviving cells, samples were removed, diluted and plated to provide 2×10^2 to 2×10^4 cells/well on 60 mm Linbro multi-well plates (Flow Laboratories, McLean, Virginia). The plates were incubated at 37° C. for 6 days, stained with crystal violet and examined for colony formation. Colonies of 50 cells or greater were counted. Each plotted point in FIGS. 1 and 2 represent the mean of three or four replicate experiments.

Data set [2] deals with V79 Chinese hamster lung cells. The data set is described as above. Type of data set: cell-based. How it is done: as §1, §2
The test system of data set [3] is V79 Chinese hamster lung cells. The data set is described as follows: Radiosensitization of V79 cells. It counts as cell-based. As to conditions: for EC (SER 1.6): Cricetulus griseus. The protocol: as §1
Radiosensitization studies were performed on V79 cells in a manner similar to the acute toxicity experiments, except that the survival fraction was determined after a predetermined radiation dose. […] One Gy is equal to 100 rads, wherein one rad is the quantity of ionizing radiation that results in the absorption of 100 ergs of energy per gram of irradiated material. Hypoxia was maintained throughout irradiation. […] Sensitization enhancement ratios (SER) were determined at a 10% survival level. […] The plotted points in FIGS. 3 and 4 represent the mean of 2 or 3 replicate experiments.

Data set [4] has as its system V79 cells. Kind of data set: Isoeffective to the oxygen dose (IsD). It counts as cell-based, Chinese hamster. As to conditions: Cricetulus griseus, V79, 1 h, 7.5 Gy, 1 hour at 37° C.; read-out: Isoeffective to the oxygen dose at 7.5 Gy: IsD(7.5). The text has this: The survival fraction under hypoxic conditions (plotted versus compound concentration) meets the aerobic survival fraction (radiation toxicity) at the IsD. The IsD value is a useful indicator of the overall potency of a compound as a sensitizer and cytotoxin of hypoxic cells. IsD is especially useful when comparing different compounds for hypoxic cytotoxicity and radiosensitizing efficacy.
FIGS. 5 and 6 illustrate the IsD at 7.5 Gy (FIG. 5A) and 20 Gy (FIG. 5B). FIGS. 5A and 6A include a comparison to the prior art NLA-1 compound. V79 cells were irradiated at 7.5 Gy or 20 Gy after a 1 hour exposure under hypoxia (symbols) or air (straight line), at various drug concentrations. No toxicity or radiosensitization for any tested compound was observed under aerobic conditions over the tested concentration ranges. IsD values were calculated from the intersections of the survival fractions of the hypoxic curves with the survival fraction in air. All data points in FIGS. 5 and 6 represent the mean of two replicate experiments.

The nature of data set [5]: Partition coefficient in octanol/water. It counts as physicochemical. How it is done:
The partition coefficient of the hypoxia selective cytotoxins of the present invention were determined by the method of T. Fujita et al., J. Am. Chem. Soc., 86, 5175-5180 (1964), incorporated herein by reference.

For data set [6], the system named is V79 cells. Kind of data set: Drug uptake in the presence of ammonium chloride. It counts as cell-based, Chinese hamster. As to conditions: aerobic V79 cells, 60 μM input, 50 mM NH4Cl (stated for THNLA-1). The protocol:
Uptake measurements in the presence of the lysosomotropic agent ammonium chloride (NH4 Cl) also were performed in a manner as previously described.
Concentrations were determined by UV spectrophotometry at 330 nm. The plotted points represent the mean of two experiments.

Data set [7] concerns the target T1, calf thymus Topo I (Bos taurus, UniProt F1MN93).
T1 construct: purchased TopoGEN, Inc., Columbus, Ohio; host or cells: calf thymus
T1 sequence (F1MN93 1-767): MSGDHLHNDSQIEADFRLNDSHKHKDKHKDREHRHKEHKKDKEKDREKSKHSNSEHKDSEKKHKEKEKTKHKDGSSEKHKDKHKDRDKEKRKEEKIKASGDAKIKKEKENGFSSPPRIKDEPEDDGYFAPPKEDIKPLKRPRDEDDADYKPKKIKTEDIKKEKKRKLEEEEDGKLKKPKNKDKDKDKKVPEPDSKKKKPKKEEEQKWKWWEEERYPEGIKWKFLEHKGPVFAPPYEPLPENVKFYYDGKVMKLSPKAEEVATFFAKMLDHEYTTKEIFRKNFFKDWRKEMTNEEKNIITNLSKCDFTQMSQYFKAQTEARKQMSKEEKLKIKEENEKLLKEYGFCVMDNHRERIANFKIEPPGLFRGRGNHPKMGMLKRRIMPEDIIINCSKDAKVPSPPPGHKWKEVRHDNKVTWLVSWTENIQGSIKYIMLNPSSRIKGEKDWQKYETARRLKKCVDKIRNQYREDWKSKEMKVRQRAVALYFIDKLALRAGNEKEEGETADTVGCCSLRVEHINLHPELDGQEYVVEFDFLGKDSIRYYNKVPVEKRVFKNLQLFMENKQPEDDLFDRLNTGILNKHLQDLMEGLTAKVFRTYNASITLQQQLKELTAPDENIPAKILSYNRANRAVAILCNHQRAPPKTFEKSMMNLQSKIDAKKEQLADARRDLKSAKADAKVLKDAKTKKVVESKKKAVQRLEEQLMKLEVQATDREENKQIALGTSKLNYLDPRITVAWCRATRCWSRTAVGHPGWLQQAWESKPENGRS
Kind of data set: Topoisomerase I interaction (relaxation of supercoiled DNA). It counts as biochemical. The protocol: In particular, a Topo I drug screening kit (TopoGEN, Inc., Columbus, Ohio) was used to assay the topoisomerase I THNLA-1 interaction. […] Camptothecin is a Topoisomerase I poison used as an anticancer drug. Camptothecin stabilizes the Topo I-DNA cleavable complex, and therefore prevents the resealing of DNA by Topo-I.
Individual reaction mixtures were heated for 30 minutes at 37° C. on a heating block, and then 2 μl of 10% SDS - proteinase K solution was added to each reaction mixture. The resulting reaction mixtures then were heated for an additional 30 minutes at 37° C. The reaction mixtures in a loading buffer were extracted with CHCl3 prior to submarine electrophoresis on a 1% agarose gel. The DNA bands were observed visually by staining with ethidium bromide (0.5 μg/ml).

In data set [8] the test system is solid tumors. As to conditions: cited from earlier work.

Each structure is given as a SMILES string. Where “and” joins values, the source holds several entries; their conditions need not be identical. Equal values may be shown once. Read-outs that look alike come from different tables or passages of the source.

Regarding `Cl.O=[N+]([O-])c1nccn1CCCNc1c2ccccc2nc2ccccc12` [NLA-1, 9-[3-(2-nitro-1-imidazolyl)propylamino]acridine hydrochloride, reference compound], 84 µM corresponded to half-maximal inhibition in data set [1] (IC50 at 1 h). Also, the IC50 is 15 µM in data set [2] (Cricetulus griseus, V79, 1 h, V79 cells, hypoxia, 1 hour, 37° C., 50% inhibition of clonogenicity); ~12 µM and 12 µM in data set [7] (Topo I inhibition (50%)-dose, Topo I-induced relaxation of supercoiled DNA). The “Hypoxic selectivity (differential aerobic/hypoxic toxicity): IC50/A,1h /IC50/H,1h” value in data set [2] (V79 cells, 1 hour, 37° C.) is listed as 5.5. Also, the “cytotoxicity / selectivity relative to THNLA-1 or NLA-1” value in data set [2] (from IC50/H, IC50/A and their ratio) is reported as “about a two times more potent hypoxic cytotoxin”. For the same compound, the EC (SER 1.6) amounted to 8 µM in data set [3] (1 h, concentration yielding an SER of 1.6, hypoxic V79 cells, read-out: Hypoxic radiosensitizing potency: C1.6); 885 µM in data set [3] (hypoxic radiosensitization, V79 cells (tables), read-out: Intracellular concentration at C1.6: C1.6i); 885 µM in data set [3] (hypoxic radiosensitization, V79 cells, read-out: Intracellular concentration for an SER of 1.6: C1.6i). For the same compound, in data set [3] (aerobic), the “radioprotection under aerobic conditions” value was “afforded radioprotection under aerobic conditions”. The EC (isoeffective to oxygen at 7.5 Gy) in data set [4] was around 11 µM. Moreover, the “Partition coefficient in octanol/water: PCo/w” value in data set [5] amounted to 0.07. The logP in data set [5] (read-out: Partition coefficient in octanol/water: PCo/w (converted)) was -1.15. Besides, the “factor of decrease of Ci in the presence of NH4Cl” value in data set [6] is given as “about 3”. In data set [7], the “Topo I-dependent single-stranded DNA cleavage” value was “observed”. Besides, the “radiosensitization in vivo / in solid tumors (prior art)” value in data set [8] is “failure of NLA-1 as radiosensitizer in solid tumors”.

Usually IC50 stands for the point on the concentration scale where inhibition reaches its midpoint. A lower IC50 goes with greater potency in that assay.
